The results in this text go back to PMC10675732 (Viruses, 2023).

This assay deals with A36T virus (PA/A36T, A/PR/8/34 (H1N1)). Type of assay: cell-based, influenza A virus.

Compound `NC(=O)c1nc(F)c[nH]c1=O` [Favipiravir] yielded an EC50 of 19.1 ± 4.87 µM and a Fold change of 0.86.
Taken in the same sequence, the figures for `O=C1c2c(O)c(=O)ccn2N([C@@H]2c3ccccc3SCc3c2ccc(F)c3F)[C@@H]2COCCN12` [baloxavir acid] were 0.00259 ± 0.00133 µM and 1.53.

In general, EC50 refers to the concentration needed to bring the measured effect to its halfway point. Lower therefore signals a more potent agent.
